# From patent publication US7691825B2, “Adenosine A2B receptor agonists” (King Pharmaceuticals Research and Development, Inc., priority 2006, dated 2010)
# Values joined by “and” are separate entries in the source; they are usually repeats but may differ in a detail not shown here. Equal entries are not always repeated. Where two headings read alike, the source gives them in different places.
# Legend:
# [1] = biological target: T1, hA2A receptors expressed in CHO cells (Homo sapiens, UniProt P29274); assay: [3H]CGS21680 binding hA2A CHO cells; conditions: [3H]-CGS 21680, hA2A CHO cell membranes, 180 min at 25° C.; mean ± s.e. mean
# T1 construct: expressed in transfected cells; host or cells: CHO cells (stably transfected, per Klotz et al. 1998); membrane preparation
# Experimental: (§2) The cells are grown adherently and maintained in Dulbecco's Modified Eagles Medium with nutrient mixture F12 (DMEM/F12) without nucleosides, containing 10% fetal calf serum, penicillin (100 U/mL), streptomycin (100 μg/mL), L-glutamine (2 mM) and Geneticin (G418, 0.2 mg/mL) at 37° C. in 5% CO2/95% air. […] For membrane preparation the culture medium is removed and the cells are washed with PBS and scraped off T75 flasks in ice-cold hypotonic buffer (5 mM Tris HCl, 2 mM EDTA, pH 7.4). The cell suspension is homogenized and centrifuged for 30 min at 100,000×g. The membrane pellet is re-suspended in 50 mM Tris HCl buffer pH 7.4 and incubated with 2 UI/mL of adenosine deaminase for 30 min at 37° C.
# (§3) Binding of 1 nM [^3H]—CHA to hA1CHO cells (50 μg of protein/assay) is performed using 50 mM Tris HCl buffer pH 7.4 and at least 6-8 different concentrations of agonists studied for an incubation time of 150 min at 25° C. […] Non-specific binding is determined in the presence of 10 μM of CHA and is about 20% of the total binding. […] Filter bound radioactivity is measured by scintillation spectrometry after addition of 5 mL of Aquassure.
# (§4) All experimental data are expressed as the mean±standard error of the mean (s.e. mean) of three or four independent experiments performed in duplicate.
# [2] = biological target: T2, hA2B receptors expressed in CHO cells (Homo sapiens, UniProt P29275); assay: cAMP assay hA2B CHO cells; assay type: cell-based; conditions: for Selectivity hA1/hA2B: ratio hA1 Ki / hA2B EC50; for Selectivity hA2A/hA2B: ratio hA2A Ki / hA2B EC50; for Selectivity hA3/hA2B: ratio hA3 IC50 / hA2B EC50; for EC50: stimulation of cAMP levels, hA2B CHO cells, mean ± s.e. mean
# T2 construct: expressed in transfected cells; host or cells: CHO cells
# T2 sequence (P29275 1-332): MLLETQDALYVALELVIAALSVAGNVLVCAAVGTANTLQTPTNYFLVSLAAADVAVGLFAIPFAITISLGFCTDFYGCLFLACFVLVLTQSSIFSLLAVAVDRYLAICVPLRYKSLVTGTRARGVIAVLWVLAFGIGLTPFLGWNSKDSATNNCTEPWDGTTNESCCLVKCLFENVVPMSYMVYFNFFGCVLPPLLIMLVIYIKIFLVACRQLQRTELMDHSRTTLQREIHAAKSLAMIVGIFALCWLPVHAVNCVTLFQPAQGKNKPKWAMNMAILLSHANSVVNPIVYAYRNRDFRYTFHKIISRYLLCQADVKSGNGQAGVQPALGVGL
# Experimental: The effects of the tested compounds may be evaluated in functional assays measuring the stimulatory capability of the ligands to increase cAMP levels in hA2B receptors expressed in CHO cells. This may done as described by Pastorin et al. in “Pyrazolo[4,3-e]-1,2,4-triazolo[1,5-c]pyrimidine derivatives as adenosine receptor antagonists.
# (§1) For cell preparation CHO cells transfected with human A2B or A3 receptors are washed with phosphate-buffered saline and diluted trypsin, and centrifuged for 10 min at 200 g. […] After the preincubation time at 37° C., the examined ligands (1 nM-10 μM) are added to the mixture and incubated for a further 5 min. The reaction is terminated by the addition of cold 6% trichloroacetic acid (TCA). The TCA suspension is centrifuged at 2000 g for 10 min at 4° C. and the supernatant is extracted four times with water saturated diethyl ether. […] Samples of cyclic AMP standard (0-10 pmoles) are added to each test tube containing the incubation buffer (trizma base 0.1 mM, aminophylline 8.0 mM, 2-mercaptoethanol 6.0 mM, pH 7.4) and [^3H]cyclic AMP in total volume of 0.5 mL. The binding protein previously incubated at 4° C. for 150 min, and after the addition of charcoal is centrifuged at 2000 g for 10 min. The clear supernatant is counted in a Beckman scintillation counter.
# [3] = biological target: T3, hA1 receptors expressed in CHO cells (Homo sapiens, UniProt P30542); assay: [3H]CHA binding hA1 CHO cells
# T3 sequence (P30542 1-326): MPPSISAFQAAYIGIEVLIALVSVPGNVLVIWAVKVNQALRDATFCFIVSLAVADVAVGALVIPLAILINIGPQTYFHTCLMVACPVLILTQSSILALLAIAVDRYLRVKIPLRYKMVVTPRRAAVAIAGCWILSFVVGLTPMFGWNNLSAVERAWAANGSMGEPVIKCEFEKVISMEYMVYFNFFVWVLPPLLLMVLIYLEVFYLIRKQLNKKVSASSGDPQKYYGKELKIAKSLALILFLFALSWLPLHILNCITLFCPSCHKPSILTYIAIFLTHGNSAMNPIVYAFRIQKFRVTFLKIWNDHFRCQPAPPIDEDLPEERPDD
# Experimental: as §2, §3, §4
# [4] = biological target: T4, human A3 receptors in CHO cells (Homo sapiens, UniProt P0DMS8); assay: cAMP assay hA3 CHO cells; assay type: cell-based; conditions: cyclic AMP assay, mean ± s.e. mean
# T4 construct: expressed in transfected cells; host or cells: CHO cells
# T4 sequence (P0DMS8 1-318): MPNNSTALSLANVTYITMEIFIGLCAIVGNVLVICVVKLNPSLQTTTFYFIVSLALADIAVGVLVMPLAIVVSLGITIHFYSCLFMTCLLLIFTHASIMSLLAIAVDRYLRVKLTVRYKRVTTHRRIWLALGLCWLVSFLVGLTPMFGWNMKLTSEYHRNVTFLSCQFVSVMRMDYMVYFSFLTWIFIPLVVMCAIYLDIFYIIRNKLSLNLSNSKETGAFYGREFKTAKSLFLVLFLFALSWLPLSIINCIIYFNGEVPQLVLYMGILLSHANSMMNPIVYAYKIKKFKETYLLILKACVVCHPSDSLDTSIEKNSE
# Experimental: as §1
# [5] = read-out: [3H]CHA binding hA1 CHO cells Ki, 1 nM [3H]-CHA, hA1 CHO cell membranes, 150 min at 25° C., mean ± s.e. mean
# T1 sequence (P29274 whole entry): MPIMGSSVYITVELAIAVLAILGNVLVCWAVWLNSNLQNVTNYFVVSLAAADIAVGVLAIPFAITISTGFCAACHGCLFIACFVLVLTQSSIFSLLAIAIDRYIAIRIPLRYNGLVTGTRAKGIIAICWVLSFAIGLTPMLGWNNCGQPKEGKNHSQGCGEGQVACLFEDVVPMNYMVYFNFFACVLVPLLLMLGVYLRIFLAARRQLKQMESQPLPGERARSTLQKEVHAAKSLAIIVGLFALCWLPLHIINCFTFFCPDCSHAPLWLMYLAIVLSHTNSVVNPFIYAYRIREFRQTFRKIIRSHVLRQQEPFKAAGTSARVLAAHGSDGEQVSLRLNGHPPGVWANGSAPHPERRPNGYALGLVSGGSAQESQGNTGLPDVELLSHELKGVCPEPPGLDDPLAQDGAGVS
Ki [1] [nM],melting point,Selectivity hA1/hA2B [2],Selectivity hA2A/hA2B [2],Selectivity hA3/hA2B [2],EC50 [2] [nM],"Ki [3, 5] [nM]",IC50 [4] [nM],Ki [3] [nM],Structure (SMILES)
> 1000,249 to 250 °C,2.07,>2.22,>2.22,450 ± 29,933 ± 76,> 1000,–,"CCNC(=O)[C@H]1O[C@@H](n2cnc3c(NNC(=O)c4ccsc4)nc(Cl)nc32)[C@H](O)[C@@H]1O [Compound 21b, (2S, 3S, 4R, 5R)-5-{2-Chloro-6-[N′-(thiophene-3-carbonyl)-hydrazino]-9H-purin-9-yl}-3,4-dihydroxy-tetrahydrofuran-2-carboxylic acid ethylamide]"
> 1000,156 °C,>5.71,>5.71,>5.71,175 ± 20,–,> 1000,> 1000,"CCNC(=O)[C@H]1O[C@@H](n2cnc3c(NNC(=O)c4ccc(C)s4)nc(Cl)nc32)[C@H](O)[C@@H]1O [Compound 19b, (2S, 3S, 4R, 5R)-5-{2-Chloro-6-[N′-(5-methyl-thiophene-2-carbonyl)-hydrazino]-9H-purin-9-yl}-3,4-dihydroxy-tetrahydrofuran-2-carboxylic acid ethylamide]"
> 1000,182 to 183 °C,–,–,–,> 1000,–,> 1000,> 1000,"CCNC(=O)[C@H]1O[C@@H](n2cnc3c(NNC(=O)c4cc(C)on4)nc(Cl)nc32)[C@H](O)[C@@H]1O [Compound 25b, (2S, 3S, 4R, 5R)-5-{2-Chloro-6-[N′-(5-methyl-isoxazole-3-carbonyl)-hydrazino]-9H-purin-9-yl}-3,4-dihydroxy-tetrahydrofuran-2-carboxylic acid ethylamide]"
> 1000,253 to 254 °C,–,–,–,> 1000,–,> 1000,> 1000,"CCNC(=O)[C@H]1O[C@@H](n2cnc3c(NNC(=O)c4ccccc4)nc(Cl)nc32)[C@H](O)[C@@H]1O [Compound 17b, (2S, 3S, 4R, 5R)-5-[6{N′-Benzoyl-hydrazino)-2-chloro-9H-purin-9-yl}-3,4-dihydroxy-tetrahydrofuran-2-carboxylic acid ethylamide]"
> 1000,269 to 270 °C,>4.76,>4.76,>4.76,210 ± 13,–,> 1000,> 1000,"CCNC(=O)[C@H]1O[C@@H](n2cnc3c(NNC(=O)c4ccco4)nc(Cl)nc32)[C@H](O)[C@@H]1O [Compound 18b, (2S, 3S, 4R, 5R)-5-{2-Chloro-6-[N′-(furan-2-carbonyl)-hydrazino]-9H-purin-9-yl}-3,4-dihydroxy-tetrahydrofuran-2-carboxylic acid ethylamide]"
> 1000,160 to 161 °C,>2.94,>2.94,>2.94,340 ± 35,–,> 1000,> 1000,CCNC(=O)[C@H]1O[C@@H](n2cnc3c(NNC(=O)c4sccc4C)nc(Cl)nc32)[C@H](O)[C@@H]1O [Compound 23b]
> 1000,230 to 231 °C,1.70,>2.78,>2.78,359 ± 36,610 ± 32,> 1000,–,"CCNC(=O)[C@H]1O[C@@H](n2cnc3c(NNC(=O)c4ccc[nH]4)nc(Cl)nc32)[C@H](O)[C@@H]1O [Compound 24b, (2S, 3S, 4R, 5R)-5-{2-Chloro-6-[N′-(1H-pyrrole-2-carbonyl)-hydrazino]-9H-purin-9-yl}-3,4-dihydroxy-tetrahydrofuran-2-carboxylic acid ethylamide]"

# Second part, the molecule before the results:
Structure (SMILES),Ki [1] [nM],melting point,Selectivity hA1/hA2B [2],Selectivity hA2A/hA2B [2],Selectivity hA3/hA2B [2],EC50 [2] [nM],"Ki [3, 5] [nM]",IC50 [4] [nM],Ki [3] [nM]
"CCNC(=O)[C@H]1O[C@@H](n2cnc3c(NNC(=O)c4ccc(Br)o4)ncnc32)[C@H](O)[C@@H]1O [Compound 13b, (2S, 3S, 4R, 5R)-5-{6-[N′-(5-Bromo-furan-2-carbonyl)-hydrazino]-9H-purin-9-yl}-3,4-dihydroxy-tetrahydrofuran-2-carboxylic acid ethylamide]",–,171 °C,–,–,–,–,–,–,–
"CCNC(=O)[C@H]1O[C@@H](n2cnc3c(NNC(=O)c4ccccc4)ncnc32)[C@H](O)[C@@H]1O [Compound 9b, (2S, 3S, 4R, 5R)-5-[6-(N′-Benzoyl-hydrazino)-9H-purin-9-yl]-3,4-dihydroxy-tetrahydrofuran-2 carboxylic acid ethylamide]",> 1000,174 to 175 °C and 173 to 174 °C,–,–,–,> 1000,–,> 1000,> 1000
"CCNC(=O)[C@H]1O[C@@H](n2cnc3c(NNC(=O)c4ccc(C)s4)ncnc32)[C@H](O)[C@@H]1O [Compound 16b, (2S, 3S, 4R, 5R)-3,4-Dihydroxy-5-{6-[N′-(5-methyl-thiophene-2-carbonyl)-hydrazino]-9H-purin-9-yl}-tetrahydrofuran-2-carboxylic acid ethylamide]",> 1000,153 to 154 °C,>3.66,>3.66,>3.66,273 ± 12,–,> 1000,> 1000
"CCNC(=O)[C@H]1O[C@@H](n2cnc3c(NNC(=O)c4cccnc4)ncnc32)[C@H](O)[C@@H]1O [Compound 11b, (2S, 3S, 4R, 5R)-3,4-Dihydroxy-5-{6-[N′-(pyridine-3-carbonyl)-hydrazino]-9H-purin-9-yl}-tetrahydrofuran-2-carboxylic acid ethylamide]",> 1000,170 °C,–,–,–,> 1000,–,> 1000,> 1000
"CCNC(=O)[C@H]1O[C@@H](n2cnc3c(NNC(=O)c4ccco4)ncnc32)[C@H](O)[C@@H]1O [Compound 12b, (2S, 3S, 4R, 5R)-5-{6-[N′-(Furan-2-carbonyl)-hydrazino]-9H-purin-9-yl}-3,4-dihydroxy-tetrahydrofuran-2-carboxylic acid ethylamide]",> 1000,233 to 234 °C,>12.19,>12.19,>12.19,82 ± 10,–,> 1000,> 1000
"CCNC(=O)[C@H]1O[C@@H](n2cnc3c(NNC(=O)c4nc([N+](=O)[O-])cn4C)ncnc32)[C@H](O)[C@@H]1O [Compound 15b, (2S, 3S, 4R, 5R)-3,4-Dihydroxy-5-{6-[N′-(1-methyl-4-nitro-1H-imidazole-2-carbonyl)-hydrazino]-9H-purin-9-yl}-tetrahydrofuran-2-carboxylic acid ethylamide]",> 1000,169 to 170 °C,–,–,–,> 1000,–,> 1000,> 1000
